Data as given in PubChem BioAssay (NCI).
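Step 1: Grow cells in 96-well plates. Step 2: Expose to compound for 48 hours at 5 concentrations. Step 3: Interpolate endpoints linearly; if unreached, use highest concentration. GI50 = concentration required for 50% inhibition of growth. TGI: total growth inhibition.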

Experiments:
Assay in all cases: growth of human tumour cells (NCI), 48 h
[1] = system: M14 melanoma
[2] = system: TK-10 renal
[3] = system: U251 CNS
[4] = system: HOP-62 NSCLC
[5] = system: MCF7 breast
[6] = system: SK-MEL-28 melanoma
[7] = system: DU-145 prostate
[8] = system: LOX IMVI melanoma
[9] = system: UACC-62 melanoma
[10] = system: HCT-116 colon
[11] = system: A498 renal

Row | Compound | TGI [1] [µM] | TGI [2] [µM] | TGI [3] [µM] | TGI [4] [µM] | TGI [5] [µM] | TGI [6] [µM] | TGI [7] [µM] | TGI [8] [µM] | TGI [9] [µM] | TGI [10] [µM] | TGI [11] [µM] | GI50 [1] [µM] | GI50 [2] [µM] | GI50 [3] [µM] | GI50 [4] [µM] | GI50 [6] [µM] | GI50 [7] [µM] | GI50 [9] [µM] | GI50 [11] [µM] | GI50 [10] [µM]
1 | CNC(=O)N(CCC#N)CCN(CCN(C(=O)NC)c1ccccc1)C(=O)NC | > 100 | > 100 | > 100 | > 100 | > 100 | > 100 | > 100 | > 100 | > 100 | > 100 |  |  |  |  |  |  |  |  |  | 
2 | O=C(O)/C(=C\c1ccccc1)Cc1ccccc1 | > 100 | > 100 | > 100 | > 100 | > 100 | > 100 | > 100 | > 100 | > 100 | > 100 | > 100 |  |  |  |  |  |  |  |  | 
3 | C/C=C/C=C/[C@H]1Cc2cc(O)cc(O)c2O1 | > 100 | > 100 | > 100 | > 100 |  | > 100 |  | > 100 | > 100 | > 100 | > 100 |  |  |  |  |  |  |  |  | 
4 | Nc1ncnc2c1ncn2CC(OCP(=O)(O)O)Oc1ccccc1 (centres undefined) | > 100 | > 100 | > 100 | > 100 | > 100 | > 100 | > 100 | > 100 | > 100 | > 100 | > 100 |  |  |  |  |  |  |  |  | 
5 | COC(=O)[C@]1(c2cc3ccccc3n2S(=O)(=O)c2ccccc2)CC2CCC1NC2 (some centres undefined) | 27.2 | > 100 | 26.4 | 34 | 28 | 32 | 30.4 | 36.4 | 29.5 | 26.6 |  |  |  |  |  |  |  |  |  | 
6 | CC1=NN(C(=O)c2ccc(Cl)cc2)C(=O)/C1=C/c1cccc(O)c1 | > 100 | > 100 | > 100 | > 100 |  | > 100 |  | > 100 | > 100 | > 100 | > 100 |  |  |  |  |  |  |  |  | 
7 | Cc1sc(N=Nc2c(O)[nH]c3ccccc23)nc1-c1ccccc1 | 65.2 | 59.2 | 34.3 | 33.1 | 45.1 | 79.8 | 24.8 | 36 | 34.3 | 35.1 | 32.3 |  |  |  |  |  |  |  |  | 
8 | CNC(Cc1ccccc1)c1cccc(OC)c1O (centres undefined) | > 100 | > 100 | > 100 | > 100 |  | > 100 | > 100 | > 100 | > 100 | > 100 | > 100 |  |  |  |  |  |  |  |  | 
9 | COc1cc(/C=C2\NC(=O)N(/C=C3\C(=O)Oc4ccccc4C3=O)C2=O)ccc1O | > 100 | > 100 | > 100 | > 100 | > 100 |  | > 100 | > 100 | > 100 | > 100 | > 100 |  |  |  |  |  |  |  |  | 
10 | Cc1cccc(C)c1NC(=S)/N=C/C1=C(O)c2ccccc2C1=O | > 100 | > 81.2 | > 100 | > 100 | > 100 | > 100 | > 100 | > 100 | > 70.8 | > 59.8 |  |  |  |  |  |  |  |  |  | 
11 | CCN(CC)CC(C)(C)C(=O)/C=C/c1ccc(C)cc1 | 25 | 27.9 | 28.6 | 32.9 |  | 27.8 |  | 24.1 | 31.8 | 27.4 | 15.5 |  |  |  |  |  |  |  |  | 
12 | O=C(c1nsc(Cl)c1Cl)N1CCCCC1 | > 100 | > 100 | > 100 | > 100 | > 100 | > 100 | > 100 | > 100 | > 100 | > 100 |  |  |  |  |  |  |  |  |  | 
13 | CCCCCCCCCCCCCCCCCC(=O)NCCCNCCCNC(=O)CCCCCCCCCCCCCCCCC | > 100 | > 100 | > 100 | > 100 |  | > 100 |  | > 100 | > 100 | > 100 | > 100 |  |  |  |  |  |  |  |  | 
14 | C=CCC1(O)c2cccc(O)c2C(=O)c2c(O)cccc21 | 59.3 | > 100 | 69.1 | > 100 | > 100 | > 100 | > 100 | 57.2 |  | 57.7 | 79.4 |  |  |  |  |  |  |  |  | 
15 | CC(=O)OCCn1c(Cc2ccc([N+](=O)[O-])cc2)nn(C(C)=O)c1=O | > 100 | > 100 | > 100 |  | > 100 | > 100 | > 100 | > 100 | > 100 | > 100 | > 100 |  |  |  |  |  |  |  |  | 
16 | COC(=O)c1ccccc1CC1Cc2cc3c(cc2C1)CCC3 | 93.4 | > 100 | > 100 | > 100 | > 100 | > 100 | > 100 | 47.8 |  | 83.1 | > 100 |  |  |  |  |  |  |  |  | 
17 | Clc1ccc2c(NCCNc3nc(-c4ccccc4)cc(-c4ccccc4)n3)ccnc2c1 | 3.16 | 3.41 | 3.59 | 3.05 |  | 3.23 | 3.45 |  | 3.37 | 3.43 | 5.61 | 1.71 | 1.86 | 1.96 | 1.61 | 1.76 | 1.79 | 1.85 | 2.15 | 1.76
18 | OCCOCCO[P+]1(OCCOCCO)n2c3ccc2C(c2ccccc2)=C2C=CC(=N2)C(c2ccccc2)=c2ccc(n21)=C(c1ccccc1)C1=NC(=C3c2ccccc2)C=C1 | 1.38 | 1.74 | > 100 |  | 1.55 | 0.778 | 1.72 | 0.952 | 0.633 | 0.358 | > 100 |  |  |  |  |  |  |  |  | 
19 | CC(=O)Oc1ccc(-c2cc3ccccc3oc2=O)cc1OC(C)=O | > 100 | > 100 | > 100 | > 100 | > 100 | > 100 | > 100 | > 100 |  | > 100 | > 100 |  |  |  |  |  |  |  |  | 
20 | C[n+]1c2ccccc2c(NC(CCC(N)=O)C(=O)O)c2ccccc21 (centres undefined) | > 100 | > 100 | > 100 | > 100 |  |  |  |  | > 100 | > 100 | > 100 |  |  |  |  |  |  |  |  | 
